{"source": "patent US20080146555A1", "about": "“Uses of Kinase Inhibitors and Compositions Thereof” (GPC Biotech, Inc, priority 2004, published 2008)", "key": {"HT29": {"system": "HT29", "test": "SRB cytotoxicity, HT29 parental cells", "assay_type": "cell-based", "conditions": "Homo sapiens, HT-29, 72 h", "description": "In these experiments, the P-glycoprotein expressing NCI-Adr resistant subline (Vickers et al., 1989. Mol Endocrinology 3 (1):157-164) was used. […] Briefly, cells were plated in 96 well dishes 24 hours prior to compound addition. Where noted, they were exposed to verapamil for 4 hours prior to compound addition and then throughout the treatment period (72 hours). The assay was terminated with the addition of cold TCA to a final concentration of 10% and the plates were incubated for one hour at 4° C. The plates were then washed 5 times with water and 100 μl of a Sulforhodamine B solution (4%) was added to each well. The plate was then incubated for 10 minutes at room temperature before removal of unbound dye by washing with 1% acetic acid.\nThe parental non-mutated cell line HT29 was used as a control.\nZ. Cytotoxicity was measured using the SRB assay according to Shekan et al. as described above in Example 1A."}, "[1]": {"test": "Maximum tolerated dose in mice", "conditions": "mouse, in vivo, intravenous", "description": "Determination of maximum tolerated dose (MTD). Mice at 8 weeks of age were pair-matched into groups of 5-8 animals and preliminary toxicity studies were performed with unknown test compounds. Animals were treated i.v. daily for 10 consecutive days with test compound and were weighed twice weekly. Mice were examined frequently for clinical signs of any adverse drug-related effects. Acceptable toxicity for anti-cancer drugs in mice is defined by the NCl as no mean group weight loss of over 20% and not more than 10% toxic death in treated animals."}, "CK1 delta": {"target": "T1, CK1 delta (Homo sapiens, UniProt P48730)", "T1 construct": "purchased Upstate 14-520", "T1 sequence (P48730 whole entry)": "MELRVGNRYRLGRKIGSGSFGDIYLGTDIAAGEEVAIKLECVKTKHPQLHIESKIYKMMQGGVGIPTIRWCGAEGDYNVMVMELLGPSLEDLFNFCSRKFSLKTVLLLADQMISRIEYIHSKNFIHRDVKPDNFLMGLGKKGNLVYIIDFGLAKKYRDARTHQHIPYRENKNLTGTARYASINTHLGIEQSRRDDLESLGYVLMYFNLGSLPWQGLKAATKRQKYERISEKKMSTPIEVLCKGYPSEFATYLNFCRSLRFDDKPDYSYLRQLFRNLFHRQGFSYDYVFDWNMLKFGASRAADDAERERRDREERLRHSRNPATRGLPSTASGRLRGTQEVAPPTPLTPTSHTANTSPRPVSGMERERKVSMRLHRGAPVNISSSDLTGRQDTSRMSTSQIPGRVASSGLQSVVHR", "test": "CK1-Delta kinase assay (B16 assay)", "assay_type": "biochemical"}, "quiescent tumor cells": {"system": "quiescent tumor cells", "test": "Activity on quiescent tumor cells", "assay_type": "cell-based"}, "[2]": {"test": "MTD/toxicity study in rats", "assay_type": "in vivo", "conditions": "50-80 mg/kg i/v, QDx5/2/5 schedule", "description": "A similar scheme can also be employed in experimental rats and other animals. For example, to determine MTD in rats, 50-80 mg/kg of A37 was dosed i/v in a QDx5/2/5 schedule."}, "PC3 xenograft": {"system": "PC3 xenograft", "test": "PC3 xenograft tumor model", "design": "species or system mice", "conditions": "mouse, in vivo", "description": "(§1) Drugs. Compounds of the invention were synthesized and prepared for i.v. administration in a biocompatible vehicle. CPT-11 (Camptosar®, Pharmacia) was obtained as the pharmaceutical drug and was prepared in 5% dextrose-water (D5W). All preparations were made fresh weekly and injection volumes were adjusted to body weight (0.2 ml/20 g mouse).\n(§2) Mice/Husbandry. Female nu/nu mice were obtained from Charles River, housed in static microisolators, and provided ad libitum with water and an irradiated standard rodent diet (Purina Pico-Lab Rodent Diet 20).\n(§3) Standard Protocol. […] Animals were initially monitored twice weekly for tumor growth and then daily as the implants approached the desired size of approximately 100 mm^3. When the tumors grew to between 62-221 mg in calculated tumor weight, the animals were pair-matched into appropriate experimental treatment groups (8-10 animals/group) and treatment with test compounds was initiated. […] Tumor weights were calculated and body weights were taken twice weekly and animals were observed frequently for adverse drug effects. […]\n(§4) Tumors were measured by determining the length and width of the tumor with a digital caliper. […]\n(§5) Log cell kill (LCK) is a calculation that determines the percentage of tumor cells that are killed after the initiation of treatment and can be used as a quantitative measure of efficacy: […]"}, "[3]": {"system": "Rb phosphorylation at Serine-780", "test": "Rb phosphorylation", "assay_type": "cell-based"}, "A2780 xenograft": {"system": "A2780 xenograft", "test": "A2780 xenograft tumor model", "design": "species or system mice", "conditions": "mouse, in vivo", "description": "as §1, §2, §3, §4, §5"}}, "note": "Counter-ions that a name gives are not always drawn. Like-named read-outs stand apart in the source and are kept apart here.", "data": [{"smiles": "COCCN1CCN(Cc2ccc(-c3n[nH]c4c3C(=O)c3c(NC(=O)NN5CCOCC5)cccc3-4)cc2)CC1", "note": "[Compound B16, N-[3-(4-{[4-(2-methoxyethyl)piperazinyl]methyl}phenyl)-4-oxoindeno[2,3-d]pyrazol-5-yl](morpholin-4-ylamino)carboxamide dihydrochloride]", "values": [{"measurement": "IC50", "setting": "HT29", "result": 77, "unit": "nM"}, {"measurement": "MTD", "setting": "[1]; CD-1 mice, read-out: MTD, 5/2/5 dose", "result": 40, "unit": "mg/kg"}, {"measurement": "MTD at 5 days", "setting": "[1]; nu/nu mice", "result": "~100", "unit": "mg/kg"}, {"measurement": "MTD", "setting": "[1]; nu/nu mice, read-out: MTD, single dose", "result": "~120", "unit": "mg/kg"}, {"measurement": "IC50", "setting": "CK1 delta; CK1 delta, read-out: CSNK1A1 (CK1) Inhibition (IC50), B16", "result": "< 50", "unit": "nM"}, {"measurement": "IC50", "setting": "CK1 delta; kinase panel, read-out: CK1 IC50 (B16)", "result": "< 100", "unit": "nM"}, {"measurement": "IC50", "setting": "quiescent tumor cells", "result": 11, "unit": "nM"}]}, {"smiles": "CC(C)N1CCN(C(=O)COc2ccc(-c3n[nH]c4c3C(=O)c3c(NC(=O)NN5CCOCC5)cccc3-4)cc2)CC1", "note": "[Compound A37]", "values": [{"measurement": "cardiotoxicity", "setting": "[2]", "result": "did not induce cardiotoxicity"}, {"measurement": "efficacy in PC3 xenograft tumor model", "setting": "PC3 xenograft", "result": "high efficacy"}, {"measurement": "Rb phosphorylation at Serine-780", "setting": "[3]", "result": "inhibits Rb phosphorylation at Serine-780"}, {"measurement": "efficacy in A2780 xenograft tumor model", "setting": "A2780 xenograft", "result": "high efficacy"}]}]}
